Test results reported in ChEMBL document CHEMBL4507329, “Data for DCP probe BTZO-1” (2021).

What was measured:
[1] = target: Homeodomain-interacting protein kinase 4 (Homo sapiens) (UniProt Q8NE63); conditions: Compound concentration 1000.0 nM
[2] = target: AP2-associated protein kinase 1 (Homo sapiens) (UniProt Q2M2I8); conditions: Compound concentration 1000.0 nM
[3] = target: Leucine-rich repeat serine/threonine-protein kinase 2 (Homo sapiens) (UniProt Q5S007); conditions: Compound concentration 1000.0 nM
[4] = target: Ribosomal protein S6 kinase alpha-6 (Homo sapiens) (UniProt Q9UK32); conditions: Compound concentration 1000.0 nM
[5] = target: Uncharacterized serine/threonine-protein kinase SBK3 (Homo sapiens) (UniProt P0C264); conditions: Compound concentration 1000.0 nM
[6] = target: Ribosomal protein S6 kinase alpha-2 (Homo sapiens) (UniProt Q15349); conditions: Compound concentration 1000.0 nM
[7] = target: RAC-alpha serine/threonine-protein kinase (Homo sapiens) (UniProt P31749); conditions: Compound concentration 1000.0 nM
[8] = target: Mast/stem cell growth factor receptor Kit (Homo sapiens) (UniProt P10721); conditions: Compound concentration 1000.0 nM
[9] = target: Serine/threonine-protein kinase PLK4 (Homo sapiens) (UniProt O00444); conditions: Compound concentration 1000.0 nM
[10] = target: Protein kinase C delta type (Homo sapiens) (UniProt Q05655); conditions: Compound concentration 1000.0 nM
[11] = test system: ALK tyrosine kinase receptor (Homo sapiens), Q9UM73 [L1196M]; conditions: Compound concentration 1000.0 nM
[12] = target: Cyclin-dependent kinase 19 (Homo sapiens) (UniProt Q9BWU1); conditions: Compound concentration 1000.0 nM
[13] = target: BMP-2-inducible protein kinase (Homo sapiens) (UniProt Q9NSY1); conditions: Compound concentration 1000.0 nM
[14] = target: D(2) dopamine receptor (Homo sapiens) (UniProt P14416); conditions: Compound concentration 10.0 uM
[15] = target: BDNF/NT-3 growth factors receptor (Homo sapiens) (UniProt Q16620); conditions: Compound concentration 1000.0 nM
[16] = target: Ephrin type-A receptor 1 (Homo sapiens) (UniProt P21709); conditions: Compound concentration 1000.0 nM
[17] = target: Receptor-interacting serine/threonine-protein kinase 1 (Homo sapiens) (UniProt Q13546); conditions: Compound concentration 1000.0 nM
[18] = target: Serine/threonine-protein kinase Chk1 (Homo sapiens) (UniProt O14757); conditions: Compound concentration 1000.0 nM
[19] = target: Serine/threonine-protein kinase STK11 (Homo sapiens) (UniProt Q15831); conditions: Compound concentration 1000.0 nM
[20] = target: Macrophage colony-stimulating factor 1 receptor (Homo sapiens) (UniProt P07333); conditions: Compound concentration 1000.0 nM
[21] = target: Serine/threonine-protein kinase PAK 1 (Homo sapiens) (UniProt Q13153); conditions: Compound concentration 1000.0 nM
[22] = target: Serine/threonine-protein kinase PAK 6 (Homo sapiens) (UniProt Q9NQU5); conditions: Compound concentration 1000.0 nM
[23] = target: Kappa-type opioid receptor (Homo sapiens) (UniProt P41145); conditions: Compound concentration 10.0 uM
[24] = test system: Phosphatidylinositol 4,5-bisphosphate 3-kinase catalytic subunit alpha isoform (Homo sapiens), P42336 [Q546K]; conditions: Compound concentration 1000.0 nM
[25] = test system: Proto-oncogene tyrosine-protein kinase receptor Ret (Homo sapiens), P07949 [M918T]; conditions: Compound concentration 1000.0 nM
[26] = test system: Mast/stem cell growth factor receptor Kit (Homo sapiens), P10721 [L576P]; conditions: Compound concentration 1000.0 nM
[27] = target: Protein kinase C epsilon type (Homo sapiens) (UniProt Q02156); conditions: Compound concentration 1000.0 nM
[28] = target: RAC-gamma serine/threonine-protein kinase (Homo sapiens) (UniProt Q9Y243); conditions: Compound concentration 1000.0 nM
[29] = target: Activin receptor type-1-like (Homo sapiens) (UniProt P37023); conditions: Compound concentration 1000.0 nM
[30] = target: RAF proto-oncogene serine/threonine-protein kinase (Homo sapiens) (UniProt P04049); conditions: Compound concentration 1000.0 nM
[31] = target: Muscarinic acetylcholine receptor M5 (Homo sapiens) (UniProt P08912); conditions: Compound concentration 10.0 uM
[32] = target: Tyrosine-protein kinase receptor UFO (Homo sapiens) (UniProt P30530); conditions: Compound concentration 1000.0 nM
[33] = target: Serine/threonine-protein kinase MARK2 (Homo sapiens) (UniProt Q7KZI7); conditions: Compound concentration 1000.0 nM
[34] = target: 5-hydroxytryptamine receptor 1A (Homo sapiens) (UniProt P08908); conditions: Compound concentration 10.0 uM
[35] = target: Citron Rho-interacting kinase (Homo sapiens) (UniProt O14578); conditions: Compound concentration 1000.0 nM
[36] = target: Atypical kinase COQ8B, mitochondrial (Homo sapiens) (UniProt Q96D53); conditions: Compound concentration 1000.0 nM
[37] = target: Serine/threonine-protein kinase RIO3 (Homo sapiens) (UniProt O14730); conditions: Compound concentration 1000.0 nM
[38] = target: Serine/threonine-protein kinase MARK1 (Homo sapiens) (UniProt Q9P0L2); conditions: Compound concentration 1000.0 nM
[39] = target: Serine/threonine-protein kinase PLK2 (Homo sapiens) (UniProt Q9NYY3); conditions: Compound concentration 1000.0 nM
[40] = target: Mitogen-activated protein kinase kinase kinase 11 (Homo sapiens) (UniProt Q16584); conditions: Compound concentration 1000.0 nM
[41] = target: Receptor-type tyrosine-protein kinase FLT3 (Homo sapiens) (UniProt P36888); conditions: Compound concentration 1000.0 nM
[42] = target: Serine/threonine-protein kinase tousled-like 2 (Homo sapiens) (UniProt Q86UE8); conditions: Compound concentration 1000.0 nM
[43] = target: D(4) dopamine receptor (Homo sapiens) (UniProt P21917); conditions: Compound concentration 10.0 uM
[44] = target: Ribosomal protein S6 kinase alpha-5 (Homo sapiens) (UniProt O75582); conditions: Compound concentration 1000.0 nM
[45] = test system: Tyrosine-protein kinase ABL1 (Homo sapiens), P00519 [Y253F]; conditions: Compound concentration 1000.0 nM

Ribosomal protein S6 kinase alpha-6 (Homo sapiens), sequence (Q9UK32 whole entry): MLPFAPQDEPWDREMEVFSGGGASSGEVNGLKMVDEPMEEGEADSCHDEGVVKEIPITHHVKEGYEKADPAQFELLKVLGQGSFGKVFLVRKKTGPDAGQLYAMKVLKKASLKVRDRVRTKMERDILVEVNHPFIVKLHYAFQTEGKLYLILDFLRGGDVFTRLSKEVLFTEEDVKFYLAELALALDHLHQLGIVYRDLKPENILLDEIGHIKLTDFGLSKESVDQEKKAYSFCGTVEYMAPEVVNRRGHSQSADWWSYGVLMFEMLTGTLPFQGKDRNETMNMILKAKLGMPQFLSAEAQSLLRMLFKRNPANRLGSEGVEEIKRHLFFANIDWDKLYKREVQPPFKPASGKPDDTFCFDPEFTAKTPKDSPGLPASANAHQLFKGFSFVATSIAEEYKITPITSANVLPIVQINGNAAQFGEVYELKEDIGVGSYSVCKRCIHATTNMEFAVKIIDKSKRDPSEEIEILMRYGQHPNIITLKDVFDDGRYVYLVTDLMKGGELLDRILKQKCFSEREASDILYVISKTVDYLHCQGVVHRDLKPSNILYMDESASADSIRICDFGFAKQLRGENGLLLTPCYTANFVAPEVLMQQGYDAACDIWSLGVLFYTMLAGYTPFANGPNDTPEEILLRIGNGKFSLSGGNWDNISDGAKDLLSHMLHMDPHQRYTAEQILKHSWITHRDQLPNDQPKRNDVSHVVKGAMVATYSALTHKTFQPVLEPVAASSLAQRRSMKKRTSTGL
Muscarinic acetylcholine receptor M5 (Homo sapiens), sequence (P08912 whole entry): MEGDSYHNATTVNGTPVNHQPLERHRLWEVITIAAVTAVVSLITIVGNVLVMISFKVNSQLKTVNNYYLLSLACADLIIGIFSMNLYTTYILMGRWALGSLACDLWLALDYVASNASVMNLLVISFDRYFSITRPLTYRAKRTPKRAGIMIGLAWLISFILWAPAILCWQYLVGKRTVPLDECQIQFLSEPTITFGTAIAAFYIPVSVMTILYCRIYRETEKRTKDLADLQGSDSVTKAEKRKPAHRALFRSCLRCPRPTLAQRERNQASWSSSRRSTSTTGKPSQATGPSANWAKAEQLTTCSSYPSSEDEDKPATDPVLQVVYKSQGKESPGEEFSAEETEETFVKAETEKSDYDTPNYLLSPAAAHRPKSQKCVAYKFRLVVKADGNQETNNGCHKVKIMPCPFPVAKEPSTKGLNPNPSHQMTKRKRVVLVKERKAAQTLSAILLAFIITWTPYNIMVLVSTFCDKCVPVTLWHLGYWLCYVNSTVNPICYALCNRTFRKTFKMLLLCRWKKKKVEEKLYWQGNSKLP
Serine/threonine-protein kinase PAK 1 (Homo sapiens), sequence (Q13153 whole entry): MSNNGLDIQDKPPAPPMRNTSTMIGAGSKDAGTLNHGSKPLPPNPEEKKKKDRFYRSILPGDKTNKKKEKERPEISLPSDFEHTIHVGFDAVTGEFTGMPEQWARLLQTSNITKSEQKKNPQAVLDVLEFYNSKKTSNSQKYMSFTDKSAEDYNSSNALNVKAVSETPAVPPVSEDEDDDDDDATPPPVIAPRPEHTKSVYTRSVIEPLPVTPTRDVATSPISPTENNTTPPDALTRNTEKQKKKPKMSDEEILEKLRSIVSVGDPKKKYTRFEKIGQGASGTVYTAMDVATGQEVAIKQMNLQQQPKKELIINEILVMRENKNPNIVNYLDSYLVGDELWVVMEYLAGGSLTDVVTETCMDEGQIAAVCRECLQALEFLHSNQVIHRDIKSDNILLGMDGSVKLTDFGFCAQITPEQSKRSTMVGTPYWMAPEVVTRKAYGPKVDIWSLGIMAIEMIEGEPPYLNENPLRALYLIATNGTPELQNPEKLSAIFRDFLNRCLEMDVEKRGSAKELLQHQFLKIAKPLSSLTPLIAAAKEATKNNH
Serine/threonine-protein kinase tousled-like 2 (Homo sapiens), sequence (Q86UE8 whole entry, looked up): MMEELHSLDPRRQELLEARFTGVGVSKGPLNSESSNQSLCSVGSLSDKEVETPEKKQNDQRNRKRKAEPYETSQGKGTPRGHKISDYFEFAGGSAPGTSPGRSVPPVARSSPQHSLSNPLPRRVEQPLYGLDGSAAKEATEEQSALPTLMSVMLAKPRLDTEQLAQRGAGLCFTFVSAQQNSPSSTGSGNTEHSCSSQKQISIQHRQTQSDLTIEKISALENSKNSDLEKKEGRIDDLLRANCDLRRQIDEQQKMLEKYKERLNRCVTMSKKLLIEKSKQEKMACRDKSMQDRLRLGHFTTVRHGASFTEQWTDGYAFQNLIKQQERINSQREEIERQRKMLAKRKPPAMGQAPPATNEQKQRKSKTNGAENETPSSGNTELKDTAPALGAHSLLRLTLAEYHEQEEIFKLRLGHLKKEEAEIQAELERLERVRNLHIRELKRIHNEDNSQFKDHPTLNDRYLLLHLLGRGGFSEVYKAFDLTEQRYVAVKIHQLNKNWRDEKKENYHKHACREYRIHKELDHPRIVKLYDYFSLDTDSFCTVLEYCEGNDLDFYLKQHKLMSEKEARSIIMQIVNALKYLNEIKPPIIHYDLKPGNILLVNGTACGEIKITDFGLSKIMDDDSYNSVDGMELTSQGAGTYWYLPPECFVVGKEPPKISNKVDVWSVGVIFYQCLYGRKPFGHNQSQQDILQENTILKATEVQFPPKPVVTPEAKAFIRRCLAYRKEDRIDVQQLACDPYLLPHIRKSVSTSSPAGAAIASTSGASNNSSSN
Uncharacterized serine/threonine-protein kinase SBK3 (Homo sapiens), sequence (P0C264 whole entry): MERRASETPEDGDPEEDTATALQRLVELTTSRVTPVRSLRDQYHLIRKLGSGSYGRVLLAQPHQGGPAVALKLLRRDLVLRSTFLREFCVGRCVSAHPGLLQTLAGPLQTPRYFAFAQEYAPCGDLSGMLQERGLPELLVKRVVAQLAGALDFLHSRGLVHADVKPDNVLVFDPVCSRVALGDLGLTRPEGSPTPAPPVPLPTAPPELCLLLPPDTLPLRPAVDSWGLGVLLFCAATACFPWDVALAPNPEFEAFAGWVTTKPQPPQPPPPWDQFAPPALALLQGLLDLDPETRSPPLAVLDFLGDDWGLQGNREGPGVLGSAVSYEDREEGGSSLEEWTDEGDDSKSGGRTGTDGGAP
Mast/stem cell growth factor receptor Kit (Homo sapiens), P10721 [L576P], sequence (P10721 whole entry L576P): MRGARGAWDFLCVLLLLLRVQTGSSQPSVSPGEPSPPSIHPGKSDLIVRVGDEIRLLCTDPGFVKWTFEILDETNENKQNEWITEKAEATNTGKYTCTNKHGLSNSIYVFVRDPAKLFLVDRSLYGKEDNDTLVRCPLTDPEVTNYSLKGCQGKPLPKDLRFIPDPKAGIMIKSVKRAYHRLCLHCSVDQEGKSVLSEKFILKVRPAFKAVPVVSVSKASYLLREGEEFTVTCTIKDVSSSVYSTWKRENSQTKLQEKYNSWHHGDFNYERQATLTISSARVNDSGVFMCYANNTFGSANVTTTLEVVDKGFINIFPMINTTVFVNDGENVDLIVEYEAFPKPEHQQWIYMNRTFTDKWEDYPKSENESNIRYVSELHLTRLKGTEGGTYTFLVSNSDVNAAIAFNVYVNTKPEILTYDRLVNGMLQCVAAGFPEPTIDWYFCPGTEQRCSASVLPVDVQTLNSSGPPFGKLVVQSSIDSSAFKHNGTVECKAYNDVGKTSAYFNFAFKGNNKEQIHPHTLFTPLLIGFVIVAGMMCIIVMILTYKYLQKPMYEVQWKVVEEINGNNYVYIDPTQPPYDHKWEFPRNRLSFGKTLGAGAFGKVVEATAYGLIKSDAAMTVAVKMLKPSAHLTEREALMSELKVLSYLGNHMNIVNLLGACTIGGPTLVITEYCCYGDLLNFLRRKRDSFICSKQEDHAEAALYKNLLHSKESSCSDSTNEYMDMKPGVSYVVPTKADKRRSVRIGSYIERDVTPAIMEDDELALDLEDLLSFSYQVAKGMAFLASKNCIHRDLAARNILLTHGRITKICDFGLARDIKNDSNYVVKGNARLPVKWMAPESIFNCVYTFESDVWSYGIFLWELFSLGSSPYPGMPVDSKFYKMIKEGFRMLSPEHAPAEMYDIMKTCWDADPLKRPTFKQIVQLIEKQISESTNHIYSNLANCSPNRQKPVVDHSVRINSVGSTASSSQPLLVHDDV
Serine/threonine-protein kinase MARK2 (Homo sapiens), sequence (Q7KZI7 whole entry): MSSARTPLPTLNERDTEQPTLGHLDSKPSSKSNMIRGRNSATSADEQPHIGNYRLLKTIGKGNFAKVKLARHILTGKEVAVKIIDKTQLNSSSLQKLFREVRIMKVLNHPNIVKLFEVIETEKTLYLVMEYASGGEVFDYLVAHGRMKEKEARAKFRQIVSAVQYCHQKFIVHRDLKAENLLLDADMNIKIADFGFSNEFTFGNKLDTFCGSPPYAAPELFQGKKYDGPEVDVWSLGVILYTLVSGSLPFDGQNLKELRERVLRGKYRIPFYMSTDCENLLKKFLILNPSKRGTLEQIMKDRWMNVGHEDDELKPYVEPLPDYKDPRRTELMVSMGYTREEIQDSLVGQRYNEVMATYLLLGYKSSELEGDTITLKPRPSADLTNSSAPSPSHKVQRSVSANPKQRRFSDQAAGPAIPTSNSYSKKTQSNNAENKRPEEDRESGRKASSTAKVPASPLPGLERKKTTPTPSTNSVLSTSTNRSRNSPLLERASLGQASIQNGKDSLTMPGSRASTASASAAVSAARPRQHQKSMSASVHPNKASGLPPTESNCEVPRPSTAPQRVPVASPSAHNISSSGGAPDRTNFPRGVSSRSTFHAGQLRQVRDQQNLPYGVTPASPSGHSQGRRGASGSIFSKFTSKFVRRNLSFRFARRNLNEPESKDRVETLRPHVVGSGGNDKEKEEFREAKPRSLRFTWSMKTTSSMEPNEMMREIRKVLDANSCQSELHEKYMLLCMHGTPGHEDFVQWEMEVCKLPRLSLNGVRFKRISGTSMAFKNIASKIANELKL
Mast/stem cell growth factor receptor Kit (Homo sapiens), sequence (P10721 whole entry): as the sequence (P10721 whole entry L576P) above, with P576L counted along it

O=C1NC(c2ccccn2)Sc2ccccc21 (stereo not given) [BTZO-4]
inactive: residual activity [1] 70% | residual activity [2] 100% | residual activity [3] 93% | residual activity [4] 81% | residual activity [5] 86% | residual activity [6] 93% | residual activity [7] 89% | residual activity [8] 88% | residual activity [9] 76% | residual activity [10] 71% | residual activity [11] 97% | residual activity [12] 100% | residual activity [13] 88% | inhibition [14] -3.91% | residual activity [15] 87% | residual activity [16] 100% | residual activity [17] 81% | residual activity [18] 88% | residual activity [19] 87% | residual activity [20] 85% | residual activity [21] 96% | residual activity [22] 100% | inhibition [23] 4.68% | residual activity [24] 100% | residual activity [25] 64% | residual activity [26] 89% | residual activity [27] 96% | residual activity [28] 100% | residual activity [29] 70% | residual activity [30] 100% | inhibition [31] 0.557% | residual activity [32] 92% | residual activity [33] 92% | inhibition [34] 24.7% | residual activity [35] 96% | residual activity [36] 67% | residual activity [37] 91% | residual activity [38] 99% | residual activity [39] 97% | residual activity [40] 94% | residual activity [41] 77% | residual activity [42] 96% | inhibition [43] 7.31% | residual activity [44] 95% | residual activity [45] 69%

O=c1nc(-c2ccccn2)sc2ccccc12 [BTZO-1]
inactive: residual activity [1] 85% | residual activity [2] 100% | residual activity [3] 97% | residual activity [4] 92% | residual activity [5] 100% | residual activity [6] 100% | residual activity [7] 100% | residual activity [8] 97% | residual activity [9] 80% | residual activity [10] 100% | residual activity [11] 93% | residual activity [12] 86% | residual activity [13] 86% | inhibition [14] 22.9% | residual activity [15] 96% | residual activity [16] 100% | residual activity [17] 83% | residual activity [18] 85% | residual activity [19] 79% | residual activity [20] 85% | residual activity [21] 94% | residual activity [22] 100% | inhibition [23] 1.65% | residual activity [24] 100% | residual activity [25] 81% | residual activity [26] 86% | residual activity [27] 100% | residual activity [28] 100% | residual activity [29] 99% | residual activity [30] 100% | inhibition [31] -7.5% | residual activity [32] 100% | residual activity [33] 78% | inhibition [34] 9.69% | residual activity [35] 100% | residual activity [36] 60% | residual activity [37] 99% | residual activity [38] 100% | residual activity [39] 95% | residual activity [40] 100% | residual activity [41] 93% | residual activity [42] 96% | inhibition [43] 10.1% | residual activity [44] 94% | residual activity [45] 83%
